Test results as given in patent US7250442B2, “Dihydroindol-2-one derivatives as steroid hormone nuclear receptor modulators” (Eli Lilly and Company, priority 2003, dated 2007).

target: T1, human MR (Homo sapiens, UniProt P08235); test: Mineralocorticoid Receptor Binding Assay ([3H]-aldosterone displacement); settings: full length human MR expressed in Sf9 cells, 0.5 nM [3H]-aldosterone
T1 construct: The full length human MR gene is cloned from a human kidney or human brain cDNA library; made in house; host or cells: Sf9 insect cells (baculovirus, pAcHLT transfer vector)
T1 sequence (P08235 1-984): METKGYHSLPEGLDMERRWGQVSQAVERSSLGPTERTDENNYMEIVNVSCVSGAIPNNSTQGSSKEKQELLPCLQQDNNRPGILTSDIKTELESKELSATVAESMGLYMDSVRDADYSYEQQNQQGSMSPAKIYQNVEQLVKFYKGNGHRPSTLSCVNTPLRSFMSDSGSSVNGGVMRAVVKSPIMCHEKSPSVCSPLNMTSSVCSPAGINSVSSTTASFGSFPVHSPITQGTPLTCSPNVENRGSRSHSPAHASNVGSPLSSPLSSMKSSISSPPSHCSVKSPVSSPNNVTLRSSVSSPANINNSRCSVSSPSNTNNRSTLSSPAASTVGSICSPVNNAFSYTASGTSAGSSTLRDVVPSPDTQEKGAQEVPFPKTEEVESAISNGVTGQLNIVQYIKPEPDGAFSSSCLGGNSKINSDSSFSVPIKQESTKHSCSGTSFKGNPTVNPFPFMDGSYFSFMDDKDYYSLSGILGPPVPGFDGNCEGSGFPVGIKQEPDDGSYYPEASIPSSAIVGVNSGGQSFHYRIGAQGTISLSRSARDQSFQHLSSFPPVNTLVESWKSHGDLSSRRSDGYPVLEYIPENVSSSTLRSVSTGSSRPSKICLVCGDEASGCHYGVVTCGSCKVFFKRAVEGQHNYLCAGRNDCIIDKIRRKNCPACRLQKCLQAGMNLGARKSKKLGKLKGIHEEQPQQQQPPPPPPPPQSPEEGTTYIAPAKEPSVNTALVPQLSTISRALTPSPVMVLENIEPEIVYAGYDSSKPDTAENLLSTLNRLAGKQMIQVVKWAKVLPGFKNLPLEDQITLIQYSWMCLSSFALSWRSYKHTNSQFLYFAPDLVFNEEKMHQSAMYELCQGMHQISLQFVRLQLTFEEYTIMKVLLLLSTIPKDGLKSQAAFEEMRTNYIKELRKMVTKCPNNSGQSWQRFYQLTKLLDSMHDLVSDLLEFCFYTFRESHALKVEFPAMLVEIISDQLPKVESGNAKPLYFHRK
Outline: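 Full-length human MR expressed in Sf9 cells; lysate (20-25 μg protein) incubated with 0.5 nM [3H]-aldosterone and test compound in molybdate/Tris/phosphate/glycerol buffer pH 7.5, 16 h at 4 °C. Bound ligand measured by filtration and scintillation counting; IC50 converted to Ki via Cheng-Prusoff.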

SMILES	Ki
Cc1cc(C2(c3cc(C)c(O)c(C)c3)C(=O)N(c3cccnc3)c3ccccc32)cc(C)c1O [Example 135, 3,3-Bis-(4-hydroxy-3,5-dimethyl-phenyl)-1-pyridin-3-yl-1,3-dihydro-indol-2-one]	≤ 500 nM
COC(=O)c1cccc(CN2C(=O)C(c3cc(C)c(O)c(C)c3)(c3cc(C)c(O)c(C)c3)c3ccccc32)c1 [Example 55, 3-[3,3-Bis-(4-hydroxy-3,5-dimethyl-phenyl)-2-oxo-2,3-dihydro-indol-1-ylmethyl]-benzoic acid methyl ester]	≤ 500 nM
Cc1nc(CN2C(=O)C(c3cc(C)c(O)c(C)c3)(c3cc(C)c(O)c(C)c3)c3ccccc32)cs1 [Example 89, 3,3-Bis-(4-hydroxy-3,5-dimethyl-phenyl)-1-(2-methyl-thiazol-4-ylmethyl)-1,3-dihydro-indol-2-one]	≤ 500 nM
Cc1cc(C2(c3cc(C)c(O)c(C)c3)C(=O)N(Cc3ccc(C(F)(F)F)cc3)c3ccccc32)cc(C)c1O [Example 57, 3,3-Bis-(4-hydroxy-3,5-dimethyl-phenyl)-1-(4-trifluoromethyl-benzyl)-1,3-dihydro-indol-2-one]	≤ 500 nM
Cc1cc(C2(c3cc(C)c(O)c(C)c3)C(=O)N(Cc3cccc(N)c3)c3ccccc32)cc(C)c1O [Example 118, 1-(3-Amino-benzyl)-3,3-bis-(4-hydroxy-3,5-dimethyl-phenyl)-1,3-dihydro-indol-2-one]	≤ 500 nM
Cc1cc(C2(c3cc(C)c(O)c(C)c3)C(=O)N(Cc3ccc(N)cc3)c3ccccc32)cc(C)c1O [Example 117, 11-(4-Amino-benzyl)-3,3-bis-(4-hydroxy-3,5-dimethyl-phenyl)-1,3-dihydro-indol-2-one]	≤ 500 nM
Cc1cc(C2(c3ccc(O)cc3)C(=O)N(Cc3ccccc3)c3ccccc32)cc(C)c1O (centres unmarked) [Example 29, 1-Benzyl-3-(4-hydroxy-3,5-dimethyl-phenyl)-3-(4-hydroxy-phenyl)-1,3-dihydro-indol-2-one]	≤ 500 nM
Cc1cc(C2(c3cc(C)c(O)c(C)c3)C(=O)N(Cc3c(C)cccc3C)c3ccccc32)cc(C)c1O [Example 107, 1-(2,6-Dimethyl-benzyl)-3,3-bis-(4-hydroxy-3,5-dimethyl-phenyl)-1,3-dihydro-indol-2-one]	≤ 500 nM
Cc1cc(C2(c3cc(C)c(O)c(C)c3)C(=O)N(C3CCCC3)c3ccccc32)cc(C)c1O [Example 114, 1-Cyclopentyl-3,3-bis-(4-hydroxy-3,5-dimethyl-phenyl)-1,3-dihydro-indol-2-one]	≤ 500 nM
Cc1cc(C2(c3cc(C)c(O)c(C)c3)C(=O)N(Cc3cccc(C(F)(F)F)c3)c3ccccc32)cc(C)c1O [Example 61, 3,3-Bis-(4-hydroxy-3,5-dimethyl-phenyl)-1-(3-trifluoromethyl-benzyl)-1,3-dihydro-indol-2-one]	≤ 500 nM
Cc1cc(C2(c3cc(C)c(O)c(C)c3)C(=O)N(Cc3ccc(Cl)c(Cl)c3)c3ccccc32)cc(C)c1O [Example 52, 1-(3,4-Dichloro-benzyl)-3,3-bis-(4-hydroxy-3,5-dimethyl-phenyl)-1,3-dihydro-indol-2-one]	≤ 500 nM
COc1cccc(N2C(=O)C(c3cc(C)c(O)c(C)c3)(c3cc(C)c(O)c(C)c3)c3ccccc32)c1 [Example 134, 3,3-Bis-(4-hydroxy-3,5-dimethyl-phenyl)-1-(3-methoxy-phenyl)-1,3-dihydro-indol-2-one]	≤ 500 nM
Cc1cc(C2(c3cc(C)c(O)c(C)c3)C(=O)N(Cc3ccc(C(C)(C)C)cc3)c3ccccc32)cc(C)c1O [Example 7, 1-(4-tert-Butyl-benzyl)-3,3-bis-(4-hydroxy-3,5-dimethyl-phenyl)-1,3-dihydro-indol-2-one]	≤ 500 nM
Cc1cc(C2(c3cc(C)c(O)c(C)c3)C(=O)N(CCc3scnc3C)c3ccccc32)cc(C)c1O [Example 121, 3,3-Bis-(4-hydroxy-3,5-dimethyl-phenyl)-1-[2-(4-methyl-thiazol-5-yl)-ethyl]-1,3-dihydro-indol-2-one]	≤ 500 nM
Cc1cc(C2(c3cc(C)c(O)c(C)c3)C(=O)N(Cc3ccc(O)cc3)c3ccccc32)cc(C)c1O [Example 88, 1-(4-Hydroxy-benzyl)-3,3-bis-(4-hydroxy-3,5-dimethyl-phenyl)-1,3-dihydro-indol-2-one]	≤ 500 nM
Cc1cc(C2(c3cc(C)c(O)c(C)c3)C(=O)N(Cc3ccc(Br)cc3F)c3ccccc32)cc(C)c1O [Example 81, 1-(4-Bromo-2-fluoro-benzyl)-3,3-bis-(4-hydroxy-3,5-dimethyl-phenyl)-1,3-dihydro-indol-2-one]	≤ 500 nM
COc1ccc(OC)c(C(=O)CN2C(=O)C(c3cc(C)c(O)c(C)c3)(c3cc(C)c(O)c(C)c3)c3ccccc32)c1 [Example 49, 1-[2-(2,5-Dimethoxy-phenyl)-2-oxo-ethyl]-3,3-bis-(4-hydroxy-3,5-dimethyl-phenyl)-1,3-dihydro-indol-2-one]	≤ 500 nM
Cc1ccc2c(c1)C(c1cc(C)c(O)c(C)c1)(c1cc(C)c(O)c(C)c1)C(=O)N2Cc1csc(C)n1 [Example 93, 3,3-Bis-(4-hydroxy-3,5-dimethyl-phenyl)-5-methyl-1-(2-methyl-thiazol-4-ylmethyl)-1,3-dihydro-indol-2-one]	≤ 500 nM
Cc1cc(C2(c3cc(C)c(O)c(C)c3)C(=O)N(Cc3cccc(Cl)c3)c3ccccc32)cc(C)c1O [Example 60, 1-(3-Chloro-benzyl)-3,3-bis-(4-hydroxy-3,5-dimethyl-phenyl)-1,3-dihydro-indol-2-one]	≤ 500 nM
Cc1cc(C2(c3cc(C)c(O)c(C)c3)C(=O)N(Cc3ccccc3C#N)c3ccccc32)cc(C)c1O [Example 51, 2-[3,3-Bis-(4-hydroxy-3,5-dimethyl-phenyl)-2-oxo-2,3-dihydro-indol-1-ylmethyl]-benzonitrile]	≤ 500 nM

Results, then the compound that gave them:

Ki	SMILES
≤ 500 nM	COc1cccc(C(=O)CN2C(=O)C(c3cc(C)c(O)c(C)c3)(c3cc(C)c(O)c(C)c3)c3ccccc32)c1 [Example 45, 3,3-Bis-(4-hydroxy-3,5-dimethyl-phenyl)-1-[2-(3-methoxy-phenyl)-2-oxo-ethyl]-1,3-dihydro-indol-2-one]
≤ 500 nM	COc1ccc(N2C(=O)C(c3cc(C)c(O)c(C)c3)(c3cc(C)c(O)c(C)c3)c3ccccc32)cc1 [Example 128, 3,3-Bis-(4-hydroxy-3,5-dimethyl-phenyl)-1-(4-methoxy-phenyl)-1,3-dihydro-indol-2-one]
≤ 500 nM	COc1ccc(C(=O)CN2C(=O)C(c3cc(C)c(O)c(C)c3)(c3cc(C)c(O)c(C)c3)c3ccccc32)cc1 [Example 46, 3,3-Bis-(4-hydroxy-3,5-dimethyl-phenyl)-1-[2-(4-methoxy-phenyl)-2-oxo-ethyl]-1,3-dihydro-indol-2-one]
≤ 500 nM	Cc1cc(C2(c3cc(C)c(O)c(C)c3)C(=O)N(CC3CC3)c3ccccc32)cc(C)c1O [Example 105, 1-Cyclopropylmethyl-3,3-bis-(4-hydroxy-3,5-dimethyl-phenyl)-1,3-dihydro-indol-2-one]
≤ 500 nM	Cc1cc(C2(c3cc(C)c(O)c(C)c3)C(=O)N(Cc3cccc4ccccc34)c3ccccc32)cc(C)c1O [Example 10, 3,3-Bis-(4-hydroxy-3,5-dimethyl-phenyl)-1-naphthalen-1-ylmethyl-1,3-dihydro-indol-2-one]
≤ 500 nM	Cc1cc(C2(c3cc(C)c(O)c(C)c3)C(=O)N(Cc3cc(C(F)(F)F)ccc3F)c3ccccc32)cc(C)c1O [Example 112, 1-(2-Fluoro-5-trifluoromethyl-benzyl)-3,3-bis-(4-hydroxy-3,5-dimethyl-phenyl)-1,3-dihydro-indol-2-one]
≤ 500 nM	Cc1cc(C2(c3cc(C)c(O)c(C)c3)C(=O)N(c3cccc(Br)c3)c3ccccc32)cc(C)c1O [Example 139, 1-(3-Bromo-phenyl)-3,3-bis-(4-hydroxy-3,5-dimethyl-phenyl)-1,3-dihydro-indol-2-one]
≤ 500 nM	COc1ccccc1C(=O)CN1C(=O)C(c2cc(C)c(O)c(C)c2)(c2cc(C)c(O)c(C)c2)c2ccccc21 [Example 44, 3,3-Bis-(4-hydroxy-3,5-dimethyl-phenyl)-1-[2-(2-methoxy-phenyl)-2-oxo-ethyl]-1,3-dihydro-indol-2-one]
≤ 500 nM	Cc1cc(C2(c3cc(C)c(O)c(C)c3)C(=O)N(Cc3ccccn3)c3ccccc32)cc(C)c1O [Example 100, 3,3-Bis-(4-hydroxy-3,5-dimethyl-phenyl)-1-pyridin-2-ylmethyl-1,3-dihydro-indol-2-one]
